In publication PMC6499206, “Quantification of Volatile Metabolites Derived From Garlic (Allium sativum) in Human Urine” (Frontiers in Nutrition, 2019):

Assay: Quantification of garlic-derived metabolites in human urine after ingestion of 3 g raw garlic (SIDA, SAFE, HRGC-MS / HRGC-GC-MS)
Type: in vivo
Settings: for metabolite concentration in urine / metabolite concentration in urine, creatinine-normalized: 3 g raw garlic
Procedure, shortened: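 Quantification used stable isotope dilution (²H3-AMS, -AMSO, -AMSO2 standards), SAFE distillation at 50°C of DCM-treated urine, and GC-MS on a DB-FFAP column, with creatinine from the Jaffé reaction at 492 nm. Urine came from 18 volunteers avoiding sulfur-rich foods, sampled before and up to 24 h after eating 3 g raw garlic.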

C=CC[S+](C)[O-] (stereo not shown) [AMSO, allyl methyl sulfoxide]
concentration in urine compared with human milk (3 g raw garlic in both studies, milk data ref 20): about three times as high
metabolite concentration in urine (U I, 0.5 h post (0.55 h)): 168.4 µg/kg
metabolite concentration in urine, creatinine-normalized (U I, 0.5 h post (0.55 h)): 23.6 µg/mmol creatinine
metabolite concentration in urine (U I, 1 h post (1.03 h)): 191.0 µg/kg
metabolite concentration in urine, creatinine-normalized (U I, 1 h post (1.03 h)): 205.9 µg/mmol creatinine
metabolite concentration in urine (U I, 2 h post (2.05 h)): 227.6 µg/kg
metabolite concentration in urine, creatinine-normalized (U I, 2 h post (2.05 h)): 112.5 µg/mmol creatinine
metabolite concentration in urine (U I, 4 h post (4.05 h)): 165.7 µg/kg
metabolite concentration in urine, creatinine-normalized (U I, 4 h post (4.05 h)): 19.1 µg/mmol creatinine
metabolite concentration in urine (U I, 6 h post (6.05 h)): 119.1 µg/kg
metabolite concentration in urine, creatinine-normalized (U I, 6 h post (6.05 h)): 13.2 µg/mmol creatinine
metabolite concentration in urine (U I, 8 h post (8.05 h)): 41.8 µg/kg
metabolite concentration in urine, creatinine-normalized (U I, 8 h post (8.05 h)): 5.8 µg/mmol creatinine
metabolite concentration in urine (U I, 24 h post (25.55 h)): 1.6 µg/kg
metabolite concentration in urine, creatinine-normalized (U I, 24 h post (25.55 h)): 0.3 µg/mmol creatinine
metabolite concentration in urine (U I, pre (-0.03 h)): < LOD^2
metabolite concentration in urine, creatinine-normalized (U I, pre (-0.03 h)): < LOD^2
metabolite concentration in urine (U II, 0.5 h post (0.50 h)): 147.7 µg/kg
metabolite concentration in urine, creatinine-normalized (U II, 0.5 h post (0.50 h)): 14.0 µg/mmol creatinine
metabolite concentration in urine (U II, 1 h post (1.00 h)): 133.4 µg/kg
metabolite concentration in urine, creatinine-normalized (U II, 1 h post (1.00 h)): 51.2 µg/mmol creatinine
metabolite concentration in urine (U II, 2 h post (2.00 h)): 63.7 µg/kg
metabolite concentration in urine, creatinine-normalized (U II, 2 h post (2.00 h)): 62.6 µg/mmol creatinine
metabolite concentration in urine (U II, 4 h post (4.00 h)): 64.8 µg/kg
metabolite concentration in urine, creatinine-normalized (U II, 4 h post (4.00 h)): 12.0 µg/mmol creatinine
metabolite concentration in urine (U II, 6 h post (6.00 h)): 33.4 µg/kg
metabolite concentration in urine, creatinine-normalized (U II, 6 h post (6.00 h)): 3.7 µg/mmol creatinine
metabolite concentration in urine (U II, 8 h post (8.00 h)): 15.2 µg/kg
metabolite concentration in urine, creatinine-normalized (U II, 8 h post (8.00 h)): 1.8 µg/mmol creatinine
metabolite concentration in urine (U II, 24 h post (24.12 h)): traces^2
metabolite concentration in urine, creatinine-normalized (U II, 24 h post (24.12 h)): traces^2
metabolite concentration in urine (U II, pre (-0.13 h)): < LOD^2
metabolite concentration in urine, creatinine-normalized (U II, pre (-0.13 h)): < LOD^2
metabolite concentration in urine (U III, 0.5 h post (0.53 h)): 124.4 µg/kg
metabolite concentration in urine, creatinine-normalized (U III, 0.5 h post (0.53 h)): 74.5 µg/mmol creatinine
metabolite concentration in urine (U III, 1 h post (1.07 h)): 136.4 µg/kg
metabolite concentration in urine, creatinine-normalized (U III, 1 h post (1.07 h)): 192.7 µg/mmol creatinine
metabolite concentration in urine (U III, 2 h post (2.18 h)): 214.7 µg/kg
metabolite concentration in urine, creatinine-normalized (U III, 2 h post (2.18 h)): 133.1 µg/mmol creatinine
metabolite concentration in urine (U III, 4 h post (4.35 h)): 123.7 µg/kg
metabolite concentration in urine, creatinine-normalized (U III, 4 h post (4.35 h)): 47.0 µg/mmol creatinine
metabolite concentration in urine (U III, 6 h post (6.35 h)): 62.3 µg/kg
metabolite concentration in urine, creatinine-normalized (U III, 6 h post (6.35 h)): 12.2 µg/mmol creatinine
metabolite concentration in urine (U III, 8 h post (8.43 h)): 29.0 µg/kg
metabolite concentration in urine, creatinine-normalized (U III, 8 h post (8.43 h)): 5.2 µg/mmol creatinine
metabolite concentration in urine (U III, 24 h post (23.90 h)): 3.0 µg/kg
metabolite concentration in urine, creatinine-normalized (U III, 24 h post (23.90 h)): 0.5 µg/mmol creatinine
metabolite concentration in urine (U III, pre (-0.03 h)): 4.6 µg/kg
metabolite concentration in urine, creatinine-normalized (U III, pre (-0.03 h)): 0.8 µg/mmol creatinine
metabolite concentration in urine (U IV, 0.5 h post (0.55 h)): 144.3 µg/kg
metabolite concentration in urine, creatinine-normalized (U IV, 0.5 h post (0.55 h)): 30.7 µg/mmol creatinine
metabolite concentration in urine (U IV, 1 h post (1.05 h)): 141.0 µg/kg
metabolite concentration in urine, creatinine-normalized (U IV, 1 h post (1.05 h)): 117.5 µg/mmol creatinine
metabolite concentration in urine (U IV, 2 h post (2.12 h)): 129.7 µg/kg
metabolite concentration in urine, creatinine-normalized (U IV, 2 h post (2.12 h)): 82.3 µg/mmol creatinine
metabolite concentration in urine (U IV, 4 h post (4.05 h)): 108.9 µg/kg
metabolite concentration in urine, creatinine-normalized (U IV, 4 h post (4.05 h)): 22.6 µg/mmol creatinine
metabolite concentration in urine (U IV, 6 h post (6.08 h)): 63.5 µg/kg
metabolite concentration in urine, creatinine-normalized (U IV, 6 h post (6.08 h)): 4.6 µg/mmol creatinine
metabolite concentration in urine (U IV, 8 h post (8.05 h)): 31.9 µg/kg
metabolite concentration in urine, creatinine-normalized (U IV, 8 h post (8.05 h)): 6.7 µg/mmol creatinine
metabolite concentration in urine (U IV, 24 h post (24.03 h)): 3.8 µg/kg
metabolite concentration in urine, creatinine-normalized (U IV, 24 h post (24.03 h)): 0.4 µg/mmol creatinine
metabolite concentration in urine (U IV, pre (-0.05 h)): < LOD^2
metabolite concentration in urine, creatinine-normalized (U IV, pre (-0.05 h)): < LOD^2
metabolite concentration in urine (U IX, 0.5 h post (0.67 h)): 164.4 µg/kg
metabolite concentration in urine, creatinine-normalized (U IX, 0.5 h post (0.67 h)): 156.1 µg/mmol creatinine
metabolite concentration in urine (U IX, 1 h post (1.17 h)): 332.3 µg/kg
metabolite concentration in urine, creatinine-normalized (U IX, 1 h post (1.17 h)): 344.1 µg/mmol creatinine
metabolite concentration in urine (U IX, 2 h post (1.83 h)): 337.6 µg/kg
metabolite concentration in urine, creatinine-normalized (U IX, 2 h post (1.83 h)): 320.5 µg/mmol creatinine
metabolite concentration in urine (U IX, 4 h post (4.17 h)): 293.5 µg/kg
metabolite concentration in urine, creatinine-normalized (U IX, 4 h post (4.17 h)): 56.6 µg/mmol creatinine
metabolite concentration in urine (U IX, 6 h post (6.08 h)): 182.9 µg/kg
metabolite concentration in urine, creatinine-normalized (U IX, 6 h post (6.08 h)): 57.5 µg/mmol creatinine
metabolite concentration in urine (U IX, 8 h post (8.08 h)): 100.1 µg/kg
metabolite concentration in urine, creatinine-normalized (U IX, 8 h post (8.08 h)): 7.2 µg/mmol creatinine
metabolite concentration in urine (U IX, 24 h post (24.00 h)): 30.4 µg/kg
metabolite concentration in urine, creatinine-normalized (U IX, 24 h post (24.00 h)): 3.5 µg/mmol creatinine
metabolite concentration in urine (U IX, pre (-0.08 h)): < LOD^2
metabolite concentration in urine, creatinine-normalized (U IX, pre (-0.08 h)): < LOD^2
metabolite concentration in urine (U V, 0.5 h post (0.50 h)): 84.4 µg/kg
metabolite concentration in urine, creatinine-normalized (U V, 0.5 h post (0.50 h)): 123.5 µg/mmol creatinine
metabolite concentration in urine (U V, 1 h post (1.00 h)): 122.6 µg/kg
metabolite concentration in urine, creatinine-normalized (U V, 1 h post (1.00 h)): 146.3 µg/mmol creatinine
metabolite concentration in urine (U V, 2 h post (2.00 h)): 104.6 µg/kg
metabolite concentration in urine, creatinine-normalized (U V, 2 h post (2.00 h)): 124.9 µg/mmol creatinine
metabolite concentration in urine (U V, 4 h post (4.00 h)): 104.9 µg/kg
metabolite concentration in urine, creatinine-normalized (U V, 4 h post (4.00 h)): 34.0 µg/mmol creatinine
metabolite concentration in urine (U V, 6 h post (6.00 h)): 68.8 µg/kg
metabolite concentration in urine, creatinine-normalized (U V, 6 h post (6.00 h)): 13.8 µg/mmol creatinine
metabolite concentration in urine (U V, 8 h post (8.00 h)): 29.0 µg/kg
metabolite concentration in urine, creatinine-normalized (U V, 8 h post (8.00 h)): 13.4 µg/mmol creatinine
metabolite concentration in urine (U V, 24 h post (24.00 h)): 1.9 µg/kg
metabolite concentration in urine, creatinine-normalized (U V, 24 h post (24.00 h)): 0.3 µg/mmol creatinine
metabolite concentration in urine (U V, pre (-0.05 h)): < LOD^2
metabolite concentration in urine, creatinine-normalized (U V, pre (-0.05 h)): < LOD^2
metabolite concentration in urine (U VI, 0.5 h post (0.50 h)): 193.1 µg/kg
metabolite concentration in urine, creatinine-normalized (U VI, 0.5 h post (0.50 h)): 88.3 µg/mmol creatinine
metabolite concentration in urine (U VI, 1 h post (1.00 h)): 203.5 µg/kg
metabolite concentration in urine, creatinine-normalized (U VI, 1 h post (1.00 h)): 169.6 µg/mmol creatinine
metabolite concentration in urine (U VI, 2 h post (2.00 h)): 143.4 µg/kg
metabolite concentration in urine, creatinine-normalized (U VI, 2 h post (2.00 h)): 129.2 µg/mmol creatinine
metabolite concentration in urine (U VI, 4 h post (4.00 h)): 134.9 µg/kg
metabolite concentration in urine, creatinine-normalized (U VI, 4 h post (4.00 h)): 39.0 µg/mmol creatinine
metabolite concentration in urine (U VI, 6 h post (6.00 h)): 188.9 µg/kg
metabolite concentration in urine, creatinine-normalized (U VI, 6 h post (6.00 h)): 35.0 µg/mmol creatinine
metabolite concentration in urine (U VI, 8 h post (8.00 h)): 79.0 µg/kg
metabolite concentration in urine, creatinine-normalized (U VI, 8 h post (8.00 h)): 15.8 µg/mmol creatinine
metabolite concentration in urine (U VI, 24 h post (24.17 h)): 139.8 µg/kg
metabolite concentration in urine, creatinine-normalized (U VI, 24 h post (24.17 h)): 9.6 µg/mmol creatinine
metabolite concentration in urine (U VI, pre (-0.05 h)): < LOD^2
metabolite concentration in urine, creatinine-normalized (U VI, pre (-0.05 h)): < LOD^2
metabolite concentration in urine (U VII, 0.5 h post (0.50 h)): 133.2 µg/kg
metabolite concentration in urine, creatinine-normalized (U VII, 0.5 h post (0.50 h)): 125.0 µg/mmol creatinine
